The text below walks through data of patent US5019394A, “Liposome composition and its production” (Takeda Chemical Industries, Ltd., priority 1987, dated 1991).

Holding throughout (type): physicochemical
Data set [1] is described as follows: Krafft point of anionic surfactants.
Data set [2] can be described thus: observed phase transition temperature of phospholipids. Particulars: phospholipid.
The nature of data set [3]: dissolution of SMT in aqueous 6-CF solution. Particulars: 30 mg in 10 ml, pH 7, room temperature. The protocol:
270 mg of DPPC and 30 mg of DSPC were dissolved in 70 ml of 1:1 mixture of chloroform and isopropylether in a 1--1 beaker. To 10 ml of an aqueous solution of 6-carboxyfluorescein (6-CF), pH 7, which had been prepared beforehand so that the osmotic pressure might be the same as that of the physiological saline, 30 mg of sodium stearoylmethyltaurine (SMT) was added at room temperature. […] Then this solution was added to the solution of the phospholipid in an organic solvent, and emulsified by a probe type sonicator (Ohtake, Japan), to give a w/o type emulsion. Sonication at 50 watt for 30 seconds was repeated 10 times. This emulsion was charged to a rotary evaporator to evaporate off the organic solvent at 60° C. under reduced pressure, to give REV. The pressure in the evaporator was reduced greatly in the initial stage, but then adjusted in the course of evaporation of the organic solvent to prevent bumping. A small amount of the organic solvent remained in REV was further evaporated off by blowing nitrogen gas. […] The entrapment ratio of 6CF in this liposome composition was 33.2% as determined by quantification of 6-Cf entrapped in liposome (Note 1).

Where a name gives a salt, the structure may show the parent alone.

`CCCCCCCCCCCCCCCCCC(=O)NCCCOS(=O)(=O)O` [sodium stearoyl propanolamide sulfate ester] came in with a Krafft point in data set [1] of 57 °C.

The compound `CCCCCCCCCCCCCCCCCCOCCOS(=O)(=O)O` [sodium octadecylether sulfate ester] yielded a Krafft point in data set [1] of 46 °C.

`CCCCCCCCCCCCCCCCCS(=O)(=O)[O-].[Na+]` [sodium heptadecanesulfonate] yielded a Krafft point in data set [1] of 62 °C.

Take `CCCCCCCCCCCCCCCCS(=O)(=O)[O-].[Na+]` [sodium hexadecanesulfonate]: the Krafft point in data set [1] was 57 °C.

For `CCCCCCCCCCCCCCCCCC(=O)NCCS(=O)(=O)O.[Na]` [sodium stearoyltaurine], the Krafft point in data set [1] is 58 °C.

For `CCCCCCCCCCCCCCCCc1ccc(S(=O)(=O)O)cc1` [sodium hexadecylbenzenesulfonate], the Krafft point in data set [1] came out at 46 °C.

Consider `CCCCCCCCCCCCCCCCCCOCCOCCOS(=O)(=O)O` [sodium octadecyl diether sulfate ester], for which the Krafft point in data set [1] turned out to be 40 °C.

Turning to `CCCCCCCCCCCCCCCC(=O)NCCS(=O)(=O)O.[Na]` [sodium palmitoyltaurine], the Krafft point in data set [1] turned out to be 43 °C.

In data set [1], `CCCCCCCCCCCCCCCCCC(=O)NCCOS(=O)(=O)O` [sodium stearoyl ethanolamide sulfate ester] gave a Krafft point of 53 °C.

On to `CCCCCCCCCCCCCCCCCC(=O)OCC(COP(=O)(O)OCC(N)C(=O)O)OC(=O)CCCCCCCCCCCCCCCCC` (centres unmarked) [DSPS, distearoylphosphatidyl serine], for which the “observed phase transition temperature” value in data set [2] was no less than 50 °C.

Consider `CCCCCCCCCCCCCCCCCC(=O)OC(COC(=O)CCCCCCCCCCCCCCC)COP(=O)([O-])OCC[N+](C)(C)C` (centres unmarked) [PSPC, palmitoylstearoylphosphatidyl choline], for which, in data set [2], the “observed phase transition temperature” value was 47.4 °C.

With `CCCCCCCCCCCCCCCC(=O)OCC(COP(=O)(O)OCCN)OC(=O)CCCCCCCCCCCCCCC` (centres unmarked) [DPPE, dipalmitoylphosphatidyl ethanolamine], in data set [2], the “observed phase transition temperature” value came to 60 °C.

In the case of `CCCCCCCCCCCCCCc1ccc(S(=O)(=O)O)cc1` [sodium tetradecylbenzenesulfonate], the Krafft point in data set [1] came to 43 °C.

The compound `CCCCCCCCCCCCS(=O)(=O)[O-].[Na+]` [sodium dodecanesulfonate] registered a Krafft point in data set [1] of 38 °C.

Take sodium hexadecyl disulfate ester: the Krafft point in data set [1] came out at 39 °C.

Consider `CCCCCCCCCCCCCCCS(=O)(=O)[O-].[Na+]` [sodium pentadecanesulfonate], for which the Krafft point in data set [1] stood at 48 °C.

Regarding `CCCCCCCCCCCCCCCC(=O)OCC(COP(=O)(O)OCC(N)C(=O)O)OC(=O)CCCCCCCCCCCCCCC` (centres unmarked) [DPPS, dipalmitoylphosphatidyl serine], the “observed phase transition temperature” value in data set [2] is 51 °C.

`CCCCCCCCCCCCCCCC(=O)NCCOS(=O)(=O)O` [sodium palmitoyl ethanolamide sulfate ester] gave a Krafft point in data set [1] of 42 °C.

The compound `CCCCCCCCCCCCCCCCOS(=O)(=O)[O-].[Na+]` [sodium hexadecyl sulfate] returned a Krafft point in data set [1] of 43 °C.

For the compound `CCCCCCCCCCCCCCCC(=O)OCC(COP(=O)([O-])OCC[N+](C)(C)C)OC(=O)CCCCCCCCCCCCC` (centres unmarked) [PMPC, palmitoylmyristoylphosphatidyl choline], the “observed phase transition temperature” value in data set [2] was 27.2 °C.

Turning to `CCCCCCCCCCCCOS(=O)(=O)[O-].[Na+]` [sodium dodecyl sulfate, reference compound], in data set [1], the Krafft point was determined as 9 °C.

As to `CCCCCCCCCCCCCCCCCC(=O)OCC(COP(=O)(O)OCCN)OC(=O)CCCCCCCCCCCCCCCCC` (centres unmarked) [DSPE, distearoylphosphatidyl ethanolamine], the “observed phase transition temperature” value in data set [2] is “above 60 °C”.

With `CCCCCCCCCCCCCCCCCCc1ccc(S(=O)(=O)O)cc1` [sodium octadecylbenzenesulfonate], the Krafft point in data set [1] amounted to 56 °C.

`CCCCCCCCCCCCc1ccc(S(=O)(=O)O)cc1` [sodium dodecylbenzenesulfonate] yielded a Krafft point in data set [1] of 40 °C.

Take `CCCCCCCCCCCCCCCCCC(=O)OCC(COP(=O)([O-])OCC[N+](C)(C)C)OC(=O)CCCCCCCCCCCCCCCCC` (centres unmarked) [DSPC, distearoylphosphatidyl choline]: the “observed phase transition temperature” value in data set [2] is 54.9 °C.

Compound `CCCCCCCCCCCCCCCC(=O)N(C)CCS(=O)(=O)O.[Na]` [sodium palmitoylmethyltaurine] displayed a Krafft point in data set [1] of 43 °C.

For the compound dipalmitoyl sphingomyelin [DPSM], the “observed phase transition temperature” value in data set [2] was 41 °C.

In the case of distearoyl sphingomyelin [DSSM], the “observed phase transition temperature” value in data set [2] is 57 °C.

On to `CCCCCCCCCCCCCCCC(=O)NCCCOS(=O)(=O)O` [sodium palmitoyl propanolamide sulfate ester], for which the Krafft point in data set [1] came to 47 °C.

In turn, `CCCCCCCCCCCCCCS(=O)(=O)[O-].[Na+]` [sodium tetradecanesulfonate] gave a Krafft point in data set [1] of 48 °C.

As for `CCCCCCCCCCCCCCCC(=O)OC[C@H](COP(=O)([O-])OCC[N+](C)(C)C)OC(=O)CCCCCCCCCCCCCCC` [DPPC, dipalmitoylphosphatidyl choline], the “observed phase transition temperature” value in data set [2] worked out at 41.4 °C.

Consider `CCCCCCCCCCCCCCCC(=O)OC(COC(=O)CCCCCCCCCCCCC)COP(=O)([O-])OCC[N+](C)(C)C` (centres unmarked) [MPPC, myristoylpalmitoylphosphatidyl choline], for which the “observed phase transition temperature” value in data set [2] worked out at 35.3 °C.

Take `CCCCCCCCCCCCCC(=O)OC[C@H](COP(=O)([O-])OCC[N+](C)(C)C)OC(=O)CCCCCCCCCCCCC` [DMPC, dimyristoylphosphatidyl choline]: the “observed phase transition temperature” value in data set [2] turned out to be 23.9 °C.

In the case of `CCCCCCCCCCCCCCCCCC(=O)OCC(COP(=O)([O-])OCC[N+](C)(C)C)OC(=O)CCCCCCCCCCCCCCC` (centres unmarked) [SPPC, stearoylpalmitoylphosphatidyl choline], in data set [2], the “observed phase transition temperature” value was 44.0 °C.

In data set [1], `CCCCCCCCCCCCCCCCCCS(=O)(=O)[O-].[Na+]` [sodium octadecanesulfonate] yielded a Krafft point of 70 °C.

As for `CCCCCCCCCCCCCC(=O)OCC(COP(=O)(O)OCC(O)CO)OC(=O)CCCCCCCCCCCCC` (centres unmarked) [DMPG, dimyristoylphosphatidyl glycrine], the “observed phase transition temperature” value in data set [2] is 23 °C.

Turning to `CCCCCCCCCCCCCCCC(=O)OCC(COP(=O)(O)OCC(O)CO)OC(=O)CCCCCCCCCCCCCCC` (centres unmarked) [DPPG, dipalmitoylphosphatidyl glycerine], in data set [2], the “observed phase transition temperature” value was 41 °C.

In data set [1], `CCCCCCCCCCCCCCCCCC(=O)N(C)CCS(=O)(=O)O.[Na]` yielded a Krafft point of 58 °C. Further, the “solubility of SMT in aqueous 6-CF solution” value in data set [3] was “almost insoluble”.

In data set [1], `CCCCCCCCCCCCCCCCCCOS(=O)(=O)[O-].[Na+]` [sodium octadecyl sulfate] returned a Krafft point of 58 °C.

Turning to `CCCCCCCCCCCCCCCCCC(=O)OCC(COP(=O)(O)OCC(O)CO)OC(=O)CCCCCCCCCCCCCCCCC` (centres unmarked) [DSPG, distearoylphosphatidyl glycerine], the “observed phase transition temperature” value in data set [2] stood at 55 °C.

As for `CCCCCCCCCCCCCC(=O)OCC(COP(=O)(O)OCCN)OC(=O)CCCCCCCCCCCCC` (centres unmarked) [DMPE, dimyristoylphosphatidyl ethanolamine], the “observed phase transition temperature” value in data set [2] is 50 °C.

Take `CCCCCCCCCCCCCC(=O)OCC(COP(=O)(O)OCC(N)C(=O)O)OC(=O)CCCCCCCCCCCCC` (centres unmarked) [DMPS, dimyristoylphosphatidyl serine]: in data set [2], the “observed phase transition temperature” value came out at 38 °C.

In turn, sodium octadecyl disulfate ester gave a Krafft point in data set [1] of 45 °C.
